Reference: ChEMBL document CHEMBL4145500, “First homology model of Plasmodium falciparum glucose-6-phosphate dehydrogenase: Discovery of selective substrate analog-based inhibitors as novel antimalarial agents” (Eur J Med Chem, 2018)

What was measured:
[1] = Selectivity index, ratio of Ki for recombinant full length human G6PD to Ki for Plasmodium falciparum G6PD-6PGL
[2] = Cytotoxicity against human HepG2 cells assessed as cell viability at 1.5 to 2 mM after 24 hrs by EZ4U staining-based spectrophotometric analysis relative to control; conditions: read-out: Activity
[3] = target: T1, Bifunctional glucose-6-phosphate 1-dehydrogenase/6-phosphogluconolactonase (Plasmodium falciparum (isolate 3D7), UniProt Q8IKU0); experiment: Inhibition of Plasmodium falciparum G6PD-6PGL using G6P as substrate in presence of NADP+ by spectrofluorimetric analysis
T1 sequence (Q8IKU0 whole entry): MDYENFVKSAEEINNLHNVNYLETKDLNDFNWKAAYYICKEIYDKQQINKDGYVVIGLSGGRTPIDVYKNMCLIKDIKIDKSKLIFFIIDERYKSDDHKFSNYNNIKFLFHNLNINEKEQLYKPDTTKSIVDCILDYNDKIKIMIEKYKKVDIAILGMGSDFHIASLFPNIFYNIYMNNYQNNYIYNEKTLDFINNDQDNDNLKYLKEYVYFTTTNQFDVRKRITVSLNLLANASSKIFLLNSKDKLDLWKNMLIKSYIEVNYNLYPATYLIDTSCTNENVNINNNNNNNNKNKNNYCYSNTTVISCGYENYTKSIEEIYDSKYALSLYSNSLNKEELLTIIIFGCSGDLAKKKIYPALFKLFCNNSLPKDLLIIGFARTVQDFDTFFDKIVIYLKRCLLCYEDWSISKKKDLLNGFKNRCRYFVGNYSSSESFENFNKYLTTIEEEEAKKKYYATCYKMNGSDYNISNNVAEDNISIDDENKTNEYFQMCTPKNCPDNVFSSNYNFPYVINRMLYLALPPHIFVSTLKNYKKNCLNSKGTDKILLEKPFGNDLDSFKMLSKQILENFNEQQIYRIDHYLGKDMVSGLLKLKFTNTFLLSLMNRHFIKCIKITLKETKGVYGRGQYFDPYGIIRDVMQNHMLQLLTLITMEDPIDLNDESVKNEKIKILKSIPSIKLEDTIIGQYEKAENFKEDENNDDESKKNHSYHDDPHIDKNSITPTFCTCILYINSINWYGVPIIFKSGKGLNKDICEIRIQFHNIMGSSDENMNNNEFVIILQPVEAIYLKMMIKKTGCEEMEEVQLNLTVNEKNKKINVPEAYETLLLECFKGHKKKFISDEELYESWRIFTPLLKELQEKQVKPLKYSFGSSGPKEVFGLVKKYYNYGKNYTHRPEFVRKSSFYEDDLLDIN

[4] = Cytotoxicity against human HepG2 cells assessed as cell survival at 0.2 to 1 mM after 24 hrs by EZ4U staining-based spectrophotometric analysis relative to control; conditions: read-out: Survival
[5] = target: T2, Glucose-6-phosphate 1-dehydrogenase (Homo sapiens, UniProt P11413); experiment: Inhibition of recombinant full length human G6PD expressed in Escherichia coli HB351 using G6P as substrate in presence of NADP+ by spectrofluorimetric analysis
Plasmodium falciparum = experiment: Antiparasitic activity against Plasmodium falciparum Dd2 clone MRA-150 synchronized ring stage after 48 hrs by PicoGreen dye based microfluorimetric analysis; format: functional, organism-based; conditions: Dd2 clone MRA-150, 48 h
[6] = target: T2, Glucose-6-phosphate 1-dehydrogenase; experiment: Competitive inhibition of recombinant full length human G6PD expressed in Escherichia coli HB351 using G6P as substrate in presence of NADP+ by Lineweaver-Burk plot analysis
[7] = target: T1, Bifunctional glucose-6-phosphate 1-dehydrogenase/6-phosphogluconolactonase; experiment: Competitive inhibition of Plasmodium falciparum G6PD-6PGL using G6P as substrate in presence of NADP+ by Lineweaver-Burk plot analysis

T2 sequence (P11413 whole entry): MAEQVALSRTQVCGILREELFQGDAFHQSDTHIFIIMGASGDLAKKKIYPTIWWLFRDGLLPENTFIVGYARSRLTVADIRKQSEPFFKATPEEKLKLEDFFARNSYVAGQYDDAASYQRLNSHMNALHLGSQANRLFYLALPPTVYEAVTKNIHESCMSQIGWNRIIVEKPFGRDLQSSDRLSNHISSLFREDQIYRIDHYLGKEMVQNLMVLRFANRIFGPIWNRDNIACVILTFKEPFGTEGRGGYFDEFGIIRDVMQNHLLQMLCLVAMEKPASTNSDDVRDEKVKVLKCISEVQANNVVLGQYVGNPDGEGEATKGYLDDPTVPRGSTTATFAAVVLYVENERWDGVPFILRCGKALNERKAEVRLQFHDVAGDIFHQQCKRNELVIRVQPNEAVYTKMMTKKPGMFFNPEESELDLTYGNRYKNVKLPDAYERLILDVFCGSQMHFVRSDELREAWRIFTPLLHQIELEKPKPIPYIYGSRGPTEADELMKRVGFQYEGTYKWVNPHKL

Structure (SMILES)	Ratio Ki [1]	viability at 24 h, 2000 µM [2] [%]	Ki [3] [µM]	viability at 24 h, up to 1000 µM [4] [%]	Ki [5] [µM]	IC50 (Plasmodium falciparum) [µM]	IC50 [6] [µM]	IC50 [7] [µM]
CO[C@H]1O[C@H](CSCCCN)[C@@H](O)[C@H](O)[C@H]1O	0.4	< 80	289	> 80	129	> 2000		
CO[C@H]1O[C@H](CSCCN)[C@@H](O)[C@H](O)[C@H]1O	> 26		76.1	> 80	> 2000	1750		
CO[C@H]1O[C@H](CS(=O)(=O)CCC#N)[C@@H](O)[C@H](O)[C@H]1O	> 2.9		68.8	> 80	> 200	960		
CO[C@H]1O[C@H](CS(=O)(=O)CCCN)[C@@H](O)[C@H](O)[C@H]1O	1	< 80	34.4	> 80	35.4	> 2000		
CCN1CCC[C@@H]1CNC(=O)c1ccc2c(c1)NC(=O)c1cccc(C)c1S2							> 80	0.19
CO[C@H]1O[C@H](CS(=O)(=O)CCCNC(=N)N)[C@@H](O)[C@H](O)[C@H]1O	0.5	< 80	42.9	> 80	22.3	1570		
CO[C@H]1O[C@H](CNS(=O)(=O)CCNC(=N)N)[C@@H](O)[C@H](O)[C@H]1O	0.5	< 80	32.4	> 80	16.8	330		
CO[C@H]1O[C@H](CSCCNC(=N)N)[C@@H](O)[C@H](O)[C@H]1O	> 4.4		45.6	> 80	> 200	590		
CO[C@H]1O[C@H](CSCCC#N)[C@@H](O)[C@H](O)[C@H]1O	> 0.8		259	> 80	> 200	1020		
CO[C@H]1O[C@H](CNS(=O)(=O)CCN)[C@@H](O)[C@H](O)[C@H]1O	> 18		22.8	> 80	> 400	1470		
CCN1CCC[C@@H]1CNC(=O)c1ccc2c(c1)NC(=O)/C(=C/c1ccccc1F)S2							> 80	0.9
